Results published in patent US4843079A, “Fused heteroalkylene quinolinamines” (Hoechst-Roussel Pharmaceuticals, Inc., priority 1988, dated 1989).
Structures can show the parent of a compound that is named as a salt. Where two headings read alike, the source gives them in different places.

Experiments:
acetylcholinesterase = acetylcholinesterase (Homo sapiens, UniProt P22303); assay: biochemical
[1] = system: scopolamine Induced Memory Deficit; assay: Dark Avoidance Assay (scopolamine-impaired memory); type: in vivo; details: mice, retested 24 hours later
Protocol: This utility of the compounds of the present invention mentioned above can also be ascertained by determining the ability of these compounds to restore cholinergically deficient memory in the Dark Avoidance Assay. In this assay mice are tested for their ability to remember an unpleasant stimulus for a period of 24 hours. A mouse is placed in a chamber that contains a dark compartment; a strong incandescent light drives it to the dark compartment, where an electric shock is administered through metal plates on the floor. The animal is removed from the testing apparatus and tested again, 24 hours later, for the ability to remember the electric shock.
If scopolamine, an anticholinergic that is known to cause memory impairment, is administered before an animal's initial exposure to the test chamber, the animal re-enters the dark compartment shortly after being placed in the test chamber 24 hours later. This effect of scopolamine is blocked by an active test compound, resulting in a greater interval before re-entry in the dark compartment.
The results for an active compound are expressed as the percent of a group of animals in which the effect of scopolamine is blocked, as manifested by an increased interval between being placed in the test chamber and re-entering the dark compartment.

[2] = photometric method of Ellman et al., read-out: IC50, Cholinesterase Inhibition

Chain of acetylcholinesterase (P22303 32-614): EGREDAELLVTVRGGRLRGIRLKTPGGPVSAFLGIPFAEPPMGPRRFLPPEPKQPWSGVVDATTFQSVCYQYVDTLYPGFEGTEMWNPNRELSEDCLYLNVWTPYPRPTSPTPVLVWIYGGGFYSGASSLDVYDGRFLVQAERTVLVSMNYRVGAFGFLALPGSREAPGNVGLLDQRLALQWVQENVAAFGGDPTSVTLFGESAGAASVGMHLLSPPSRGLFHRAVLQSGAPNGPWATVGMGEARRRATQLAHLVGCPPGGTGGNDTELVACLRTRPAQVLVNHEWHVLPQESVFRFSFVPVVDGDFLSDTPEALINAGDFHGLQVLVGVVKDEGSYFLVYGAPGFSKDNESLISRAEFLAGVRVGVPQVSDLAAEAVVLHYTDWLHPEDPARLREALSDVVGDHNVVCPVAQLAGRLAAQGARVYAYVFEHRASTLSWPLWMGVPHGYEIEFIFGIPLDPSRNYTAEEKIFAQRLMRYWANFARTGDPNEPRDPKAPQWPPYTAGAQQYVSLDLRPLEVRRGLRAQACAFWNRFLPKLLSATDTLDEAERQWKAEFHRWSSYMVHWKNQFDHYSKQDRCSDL

Structure (SMILES)	IC50 (acetylcholinesterase; [2])	% of animals with scopolamine Induced Memory Deficit Reversed ([1]; dose 0.31 mg/kg body weight)	also measured
Nc1c2c(nc3ccccc13)CSC2 [9-Amino-1,3-dihydrothieno[3,4-b]quinoline]	47 nM	14%	
Nc1c2c(nc3ccccc13)CCS2 [9-amino-2,3-dihydrothieno[3,2-b]quinoline]	440 nM		
Nc1c2c(nc3ccccc13)CCOC2 [10-Amino-3,4-dihydro-1H-pyrano[4,3-b]quinoline fumarate]	200 nM		
Nc1c2c(nc3ccccc13)CCSC2 [10-amino-3,4-dihydro-1H-thiopyrano[4,3-b]quinoline]	970 nM		% of animals with scopolamine Induced Memory Deficit Reversed ([1]; dose 0.16 mg/kg body weight): 27%
Nc1c2c(nc3cc(F)ccc13)CCSC2 [10-amino-3,4-dihydro-7-fluoro-1H-thiopyrano [4,3-b]quinoline]	150 nM	67%	
Cc1ccc2c(N)c3c(nc2c1)CCSC3 [10-amino-3,4-dihydro-7-methyl-1H-thiopyrano[4,3-b]quinoline]	190 nM		
Nc1c2c(nc3cc(C(F)(F)F)ccc13)CCSC2 [10-amino-3,4-dihydro-7-trifluoromethyl-1H-thiopyrano[4,3-b]quinoline]			IC50 (acetylcholinesterase): 640 nM
c1ccc(CNc2c3c(nc4ccccc24)CCSC3)cc1 [10-benzylamino-3,4-dihydro-1H-thiopyrano[4,3-b]quinoline hydrochloride]			IC50 (acetylcholinesterase): 3900 nM
CNC(=O)Oc1ccc2c(c1)[C@]1(C)CCN(C)[C@@H]1N2C [Physostigmine, reference compound]		20%	
